Our source for the IC50 values is PubChem BioAssay AID1418 (Emory University Molecular Libraries Screening Center, 2008).

Calls of active or inactive are those of the source. No rule for the calls is given here. A value given as a limit tells only on which side of the number the result lay.

Induced myeloid leukemia cell differentiation protein Mcl-1 (Homo sapiens), sequence (Q07820 whole entry, looked up): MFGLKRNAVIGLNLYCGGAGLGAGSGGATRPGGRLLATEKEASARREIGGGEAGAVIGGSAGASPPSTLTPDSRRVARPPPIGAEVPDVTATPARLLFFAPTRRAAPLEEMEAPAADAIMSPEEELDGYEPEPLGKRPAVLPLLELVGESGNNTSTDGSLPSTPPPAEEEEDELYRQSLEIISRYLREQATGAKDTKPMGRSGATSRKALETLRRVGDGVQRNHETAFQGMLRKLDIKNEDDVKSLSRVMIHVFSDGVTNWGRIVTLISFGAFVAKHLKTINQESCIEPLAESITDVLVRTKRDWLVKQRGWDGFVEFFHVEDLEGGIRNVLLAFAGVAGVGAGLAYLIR

The experiment concerns the target Induced myeloid leukemia cell differentiation protein Mcl-1 (Homo sapiens) (UniProt Q07820). Briefly: blockers of Bid binding to Mcl-1 – biochemical, TR-FRET, dose response (AID 1418). The settings on record: Mcl-1/Bid peptide binding, TR-FRET (europium/Dy647), 2 hr. For orientation: Time-resolved FRET reads energy transfer from a long-lived donor to a nearby acceptor.
As for `O=C(CN1C(=O)COc2ccccc21)N(Cc1ccc2c(c1)OCO2)CC1CCCO1` (stereo not drawn), the IC50 was > 54 µM (inactive).

`CCCCCC#CCC#CCC#CCC#CCCCC(=O)O`: the IC50 is 1.78 µM.

Consider `CN1C(=O)/C(=C2\SC(=S)N(CCCCCC(=O)O)C2=O)c2ccccc21`, for which the IC50 was 29.4 µM.

In the case of `Cc1cc(C)nc(N(C#N)S(=O)(=O)c2ccccc2Cl)n1`, the IC50 is > 54 µM (inactive).

Turning to `COCCn1cc(C(=O)N2CCC(C)CC2)c2c3ccccc3n(C)c2c1=O`, the IC50 entry is “inactive”.

Take `N=c1cc(C2(O)CCCCC2)n2c(nc3ccccc32)s1`: the IC50 is > 54 µM (inactive).

Consider `COc1cc(OC)cc(C(=O)N[C@H](C(=O)OCC(=O)NC(=O)c2cccn2C)C(C)C)c1`, for which the IC50 is > 54 µM (inactive).

Consider `COC(=O)c1c(C)[nH]c(C)c1C(C)=O`, for which the IC50 was 0.54 µM.

Turning to `O=C(Nc1cccc(Cl)c1)c1cc(N=Nc2ccc([N+](=O)[O-])cc2Cl)ccc1O`, the IC50 was 4.18 µM.

As to `CN1C(=O)C(=Cc2sc(=O)n(-c3ccccc3)c2N2CCCCC2)C(=O)N(C)C1=O`, the IC50 is > 54 µM (inactive).

With `CC1(C)CC(=O)C2=C(C1)OC(N)=C(C#N)C2c1cccc(OC(=O)c2ccco2)c1` (stereo not drawn), the IC50 was > 54 µM (inactive).

`O=C(NC(Cc1ccccc1)C(=O)O)c1ccc(S(=O)(=O)N2CCCCC2)cc1` (stereo not drawn): the IC50 is > 54 µM (inactive).

Take `COc1ccc(NC(=O)CN2C(=O)/C(=C3\SC(=S)N(C4CCS(=O)(=O)C4)C3=O)c3ccccc32)cc1` (stereo not drawn): the IC50 was 0.72 µM.

Regarding `CCOC(=O)N1CCN(c2nc(C)c3c(n2)CCCC3=O)CC1`, the IC50 is > 54 µM (inactive).

As to `CCOc1cc(C(=S)N2CCOCC2)ccc1O`, the IC50 is > 54 µM (inactive).

Turning to `CCN(CC)c1ccc(CNc2nc3ccccc3n2C)cc1`, the IC50 was > 54 µM (inactive).

Turning to `NC(=O)c1cccn1-c1ncc(C(F)(F)F)cc1Cl`, the IC50 was > 54 µM (inactive).

In the case of `O=C(CNC(=O)c1ccc([N+](=O)[O-])cc1)N/N=C\c1ccc(OC(=O)c2ccccc2)cc1`, the IC50 is 11 µM.

Turning to `O=C(NC(=S)Nc1ccc(S(=O)(=O)N2CCCCC2)cc1)c1cccs1`, the IC50 was > 54 µM (inactive).

`CCOC(=O)c1cc(C#N)c(SCC(=O)OC)[nH]c1=O`: the IC50 was > 54 µM (inactive).

As to `COc1cc(/C=C2/SC(=S)N(CC3CCCO3)C2=O)ccc1O` (stereo not drawn), the IC50 is > 54 µM (inactive).

`CN(c1cccc(NC(=O)c2ccccc2N(C)S(C)(=O)=O)c1)S(C)(=O)=O`: the IC50 was > 54 µM (inactive).

With `Cc1ccc(-c2nn(C)c(=O)c3ccccc23)cc1CNC(=O)Cn1nc(-c2ccccc2)c2ccccc2c1=O`, the IC50 was 0.56 µM.

With `CC1C(=O)CCN(C(C)C)C1C` (stereo not drawn), the IC50 was > 54 µM (inactive).

Take `Cc1ccc(NC(=O)CN2C(=O)/C(=C3\SC(=S)N(C4CCS(=O)(=O)C4)C3=O)c3ccccc32)cc1` (stereo not drawn): the IC50 is 0.54 µM.

Regarding `C=CCC1(/C=N/O)CCOC(C)(C)C1` (stereo not drawn), the IC50 was > 54 µM (inactive).

Regarding `C=CCOC(=O)/C(=C/c1ccco1)NC(=O)/C=C/c1ccccc1`, the IC50 was > 54 µM (inactive).

In the case of `O=C(Oc1ccc(Nc2ncnc3ccccc23)cc1)c1cccnc1`, the IC50 was > 54 µM (inactive).

For `Cc1cc2nc(-c3ccc(NC(=O)C(C)C)cc3)oc2cc1C`, the IC50 was 3.02 µM.

For `c1ccc(Oc2nc3ccccc3n3cccc23)cc1`, the IC50 was > 54 µM (inactive).

In the case of `CN1CCN2c3ccc(N)cc3CC3(C(=O)NC(=O)NC3=O)C2C1` (stereo not drawn), the IC50 is 0.48 µM.

On to `COC(=O)C1=CN(CC2CCCO2)C=C(C(=O)OC)C1c1ccsc1` (stereo not drawn), for which the IC50 is > 54 µM (inactive).

As to `O=c1[nH]c(=O)n(CCc2ccccc2)c(O)c1C=NCc1ccc2c(c1)OCO2`, the IC50 result is “inactive”.

On to `Cc1ccc(N2CCN(C3=NC(=O)/C(=C\c4cccs4)S3)CC2)cc1`, for which the IC50 was > 54 µM (inactive).

On to `CC1CCC(C(C)C)C(OC(=O)C[n+]2cc(-c3ccc(Cl)cc3)n3c2CCC3)C1` (stereo not drawn), for which the IC50 is > 54 µM (inactive).

Take `CNNC(=O)C(=O)NNS(=O)(=O)c1ccccc1`: the IC50 is > 54 µM (inactive).

As to `O=C(NCC1CCCO1)c1cc([N+](=O)[O-])ccc1Cl` (stereo not drawn), the IC50 was > 54 µM (inactive).

Turning to `Cc1ccc2nc(SC(C)C(=O)NC3CCCc4ccccc43)[nH]c2c1` (stereo not drawn), the IC50 was > 54 µM (inactive).

Turning to `CCO[C@@H]1OC(C(=O)N2CCN(Cc3ccccc3)CC2)=C[C@H](C2CC2)[C@H]1CCCO`, the IC50 was > 54 µM (inactive).

As for `O=C1C(=Cc2ccc(Br)o2)C(=O)c2ccccc21`, the IC50 is 3.15 µM.

Regarding `O=C(Nc1nccs1)C1CC(=O)N(Cc2ccco2)C1` (stereo not drawn), the IC50 is > 54 µM (inactive).

Consider `Cc1ccccc1NCC(=O)N/N=C/C(Br)=C/c1ccccc1`, for which the IC50 is > 54 µM (inactive).

In the case of `CCN(CC)c1ccc(NC(=O)Cn2ncc3c(C)n(Cc4ccccc4F)c(C)c3c2=O)c(C)c1`, the IC50 was 0.53 µM.

Take `CN(C)S(=O)(=O)c1cccc(NC(=O)c2cc3c(=O)n4ccccc4nc3s2)c1`: the IC50 was > 54 µM (inactive).

For `CCS(=O)(=O)c1ccc(S(=O)(=O)CC)s1`, the IC50 is > 54 µM (inactive).

As to `COc1ccc(C2(C)NC(=O)N(CC(=O)NCCC3=CCCCC3)C2=O)cc1OC` (stereo not drawn), the IC50 was > 54 µM (inactive).

For `COC(=O)c1c(NC(=O)c2cnccn2)sc2c1CCC2`, the IC50 is > 54 µM (inactive).

Consider `COc1cccc(NC(=O)CSc2nc3ccccc3n2C)c1`, for which the IC50 was > 54 µM (inactive).

As to `COc1cc(OC)cc(C(=O)Nc2ccc(-c3nc4ccccc4o3)c(O)c2)c1`, the IC50 was 3.61 µM.

Consider `COC(=O)c1cccc(NC(=S)Nc2cccc(Cl)c2Cl)c1`, for which the IC50 is > 54 µM (inactive).

For `O=C(Nc1nccs1)c1cccc(N2C(=O)c3cccc4c([N+](=O)[O-])ccc(c34)C2=O)c1`, the IC50 was 0.53 µM.

For `O=C1c2ccccc2C(=O)N1Cc1nc2ccccc2c(=O)n1-c1cccnc1`, the IC50 was > 54 µM (inactive).

Consider `CN(CC(=O)Nc1cccc(C#N)c1)Cc1ccc(Cl)cc1`, for which the IC50 is > 54 µM (inactive).

For the molecule `O=[N+]([O-])c1ccc2c(c1)ncn2-c1ccccc1`, the IC50 is > 54 µM (inactive).

Consider `O=C(COC(=O)CCS(=O)(=O)c1ccc(Cl)cc1)Nc1ncc(Cl)cc1Cl`, for which the IC50 was > 54 µM (inactive).

Turning to `O=C1N=C2N(CCN3CCCCC3)c3ccccc3N2/C1=C\c1ccc([N+](=O)[O-])o1`, the IC50 is > 54 µM (inactive).

As for `Cc1ccc(C2C3=C(Nc4[nH]n(-c5ccccc5)c(=O)c42)c2ccccc2C3=O)cc1` (stereo not drawn), the IC50 is 0.74 µM.

On to `O=C(Cc1c(F)cccc1Cl)Nc1ccon1`, for which the IC50 is > 54 µM (inactive).

As to `CCC(C)[C@H](NC(=O)Nc1ccccc1F)C(=O)O` (stereo partly drawn), the IC50 was > 54 µM (inactive).

For `CCCOc1cccc(CN2CCCCC2c2cccnc2)c1` (stereo not drawn), the IC50 was > 54 µM (inactive).

With `Cc1ccc2cc(/C=N/NC(=O)CN3CCOCC3)c(Cl)nc2c1`, the IC50 is > 54 µM (inactive).

In the case of `CCCCCCn1c(O)c(C=NCCN2CCOCC2)c(=O)[nH]c1=O`, the IC50 was > 54 µM (inactive).

As to `Cc1ccc(-n2c(=O)c3cc4c(=O)n(-c5ccc(C)c(C)c5)c(=O)c4c(C(=O)c4ccc(C(=O)O)cc4)c3c2=O)cc1C`, the IC50 is 6.91 µM.

Turning to `Cc1cccc(NC(=O)C2CCN(c3nc(C)cc(C)n3)CC2)c1`, the IC50 was > 54 µM (inactive).

Consider `COC(=O)c1ccc(Oc2coc3cc(OCc4ccc([N+](=O)[O-])cc4)ccc3c2=O)cc1`, for which the IC50 is > 54 µM (inactive).

In the case of `COc1ccc(CCNc2nc(-c3cccnc3)cs2)cc1OC`, the IC50 is > 54 µM (inactive).

With `Cn1c2c(c(=O)n(C)c1=O)C1c3cc(Cl)ccc3OCC1CO2` (stereo not drawn), the IC50 is > 54 µM (inactive).

As to `COc1cccc(CNC(=O)CSCc2cnn(-c3ccccc3)c2-n2cccc2)c1OC`, the IC50 was > 54 µM (inactive).

Take `COc1cc2c(cc1OC)CN(CC(=O)Nc1ccc(C#N)cc1)CC2`: the IC50 was > 54 µM (inactive).

For `CCCCOc1ccc(CC2C(=O)N(C)C(=O)N(C)C2=O)cc1`, the IC50 is > 54 µM (inactive).

With `COc1ccc(C(=O)Nc2nc3cc(OC)c(OC)cc3c(=O)[nH]2)cc1`, the IC50 was > 54 µM (inactive).

As for `CNc1nn(-c2cccc(Cl)c2)nc1N`, the IC50 was > 54 µM (inactive).

As to `O=C(O)c1ccc(NS(=O)(=O)c2cccc3nsnc23)cc1`, the IC50 was > 54 µM (inactive).

For `CC(C)N1C(=O)/C(=C/c2nc3ccccc3c(=O)n2-c2ccccc2)c2ccccc21`, the IC50 is 0.99 µM.

Consider `Cc1c(N=Nc2c(-c3ccc([N+](=O)[O-])cc3)[nH]n(C(N)=S)c2=O)cccc1[N+](=O)[O-]`, for which the IC50 is 2.92 µM.

With `CCC1Oc2ccc(C)cc2N(CC(=O)N(Cc2cccnc2)Cc2ccc(C)o2)C1=O` (stereo not drawn), the IC50 was > 54 µM (inactive).

`CC(C)c1[nH]nc2c1C(c1cccnc1)C(C#N)=C(N)O2` (stereo not drawn): the IC50 is > 54 µM (inactive).

With `O=C(O)c1cnn2c(C(F)(F)F)cc(-c3ccco3)nc12`, the IC50 is > 54 µM (inactive).

On to `Cc1nc(COC(=O)c2cc(O)c3ccccc3c2O)cs1`, for which the IC50 is 0.9 µM.

In the case of `Cc1ccc(Cl)c(OCCCN(C)Cc2ccccc2)c1`, the IC50 is > 54 µM (inactive).

Consider `O=[N+]([O-])c1cc(Cl)cc(/C=N\Nc2ccccn2)c1O`, for which the IC50 is 9.24 µM.

On to `CCc1ccc2c(CN(CC)Cc3nc4ccccc4c(=O)[nH]3)cc(=O)oc2c1`, for which the IC50 was > 54 µM (inactive).

For the molecule `O=C(CN1C(=O)c2ccccc2C1=O)N1CCCCC1`, the IC50 was > 54 µM (inactive).

Consider `COc1ccc(NS(=O)(=O)c2cccc(NC(=O)CCC(=O)c3ccc(Cl)cc3)c2)cc1`, for which the IC50 is > 54 µM (inactive).

As to `NS(=O)(=O)c1cc2c(cc1Cl)NC(Cc1ccccc1)NS2(=O)=O` (stereo not drawn), the IC50 is > 54 µM (inactive).

Take `CSc1ccccc1NC(=O)CNCCCN1CCOCC1`: the IC50 was > 54 µM (inactive).

In the case of `CCOC(=O)C1CCN(CC(=O)Nc2c(C(=O)OC)[nH]c3cccc(Cl)c23)CC1`, the IC50 was > 54 µM (inactive).

For `Nc1nc(SCc2ccc([N+](=O)[O-])cc2)nc2nc3c(cc12)CCCC3`, the IC50 was > 54 µM (inactive).

The term IC50 denotes the concentration that inhibits the measured activity by half.
